# Measurements taken from ChEMBL document CHEMBL1201862, “PubChem BioAssay data set” (2004).
#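 Assay format: 96-well plates, 48-hour exposure. GI50 marks 50% less growth.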 Activity calls are given as the source filed them. No stated cut-off is given here; in the data, active = GI50 up to about 1.1 µM and inactive = higher.
# What was measured:
# Assay in all cases: NCI tumour cell line growth inhibition, 48 h
# [1] = tested on: OVCAR-8
# [2] = tested on: TK-10
# [3] = tested on: KM12
# [4] = tested on: Malme-3M
# [5] = tested on: COLO 205
# [6] = tested on: RPMI-8226
# [7] = tested on: HCT-116
# [8] = tested on: SF-268
# [9] = tested on: A498
# [10] = tested on: OVCAR-3
# [11] = tested on: HCC 2998
# [12] = tested on: MDA-MB-435
# [13] = tested on: SK-MEL-28
# [14] = tested on: CAKI-1
# [15] = tested on: PC-3
# [16] = tested on: MOLT-4
# [17] = tested on: OVCAR-4
# [18] = tested on: OVCAR-5
# [19] = tested on: HL-60
# [20] = tested on: CCRF-CEM
SMILES,GI50 [1],GI50 [2],GI50 [3],GI50 [4],GI50 [5],GI50 [6],GI50 [7],GI50 [8],GI50 [9],GI50 [10],GI50 [11],GI50 [12],GI50 [13],GI50 [14],GI50 [15],GI50 [16],GI50 [17],GI50 [18],GI50 [19],GI50 [20]
COc1ccc([C@H]2[C@H](C)C3=Nc4ccccc4CN32)cc1,71.8 µM (inactive),> 100 µM (inactive),42.6 µM (inactive),> 100 µM (inactive),45.1 µM (inactive),33.7 µM (inactive),33.8 µM (inactive),98.9 µM (inactive),> 100 µM (inactive),> 100 µM (inactive),41.9 µM (inactive),31.4 µM (inactive),33.2 µM (inactive),> 100 µM (inactive),> 100 µM (inactive),36.8 µM (inactive),> 100 µM (inactive),> 100 µM (inactive),29.9 µM (inactive),–
CC1=NC2(CCCCC2)N(Cl)C(=O)C1SC#N (stereo not drawn),17.9 µM (inactive),20.3 µM (inactive),21.4 µM (inactive),18.2 µM (inactive),63.1 µM (inactive),> 10 µM (inactive),–,18 µM (inactive),> 100 µM (inactive),19.6 µM (inactive),20.7 µM (inactive),19.2 µM (inactive),18 µM (inactive),–,15.8 µM (inactive),4.97 µM (inactive),20.8 µM (inactive),22.8 µM (inactive),> 100 µM (inactive),2.58 µM (inactive)
C1=C[C@@H]2c3ccc4cnccc4c3NC[C@@H]2C1,> 100 µM (inactive),> 100 µM (inactive),86.3 µM (inactive),> 100 µM (inactive),> 100 µM (inactive),> 100 µM (inactive),> 100 µM (inactive),> 100 µM (inactive),33.6 µM (inactive),> 100 µM (inactive),> 100 µM (inactive),> 100 µM (inactive),> 100 µM (inactive),–,> 100 µM (inactive),> 100 µM (inactive),–,> 100 µM (inactive),> 100 µM (inactive),> 100 µM (inactive)
Cc1nc2c(O)cc3c4c([nH]c3c2nc1C)C(=O)CCC4,2.65 µM (inactive),3.4 µM (inactive),3.69 µM (inactive),8.93 µM (inactive),2.26 µM (inactive),2.24 µM (inactive),3.01 µM (inactive),2.96 µM (inactive),19.5 µM (inactive),2.61 µM (inactive),1.71 µM (inactive),0.541 µM (active),2.8 µM (inactive),–,3.61 µM (inactive),4.91 µM (inactive),2.87 µM (inactive),4.24 µM (inactive),3.72 µM (inactive),4.07 µM (inactive)
NCCCN(CCCCN(CCCN)CCCc1ccccc1)CCCc1ccccc1,8.71 µM (inactive),12.4 µM (inactive),2.55 µM (inactive),–,1.56 µM (inactive),2.43 µM (inactive),1.82 µM (inactive),3.07 µM (inactive),13.1 µM (inactive),1.73 µM (inactive),1.62 µM (inactive),1.74 µM (inactive),1.51 µM (inactive),2.15 µM (inactive),3.22 µM (inactive),2 µM (inactive),4.89 µM (inactive),11 µM (inactive),1.15 µM (inactive),2.49 µM (inactive)
CC(=O)OC[C@@H](OC(C)=O)[C@H](OC(C)=O)[C@@H]1OC(C)(C)O[C@@H]1C1SCCCS1,> 100 µM (inactive),> 100 µM (inactive),> 100 µM (inactive),> 100 µM (inactive),> 100 µM (inactive),> 100 µM (inactive),> 100 µM (inactive),> 100 µM (inactive),> 100 µM (inactive),> 100 µM (inactive),> 100 µM (inactive),> 100 µM (inactive),> 100 µM (inactive),> 100 µM (inactive),> 100 µM (inactive),> 100 µM (inactive),> 100 µM (inactive),> 100 µM (inactive),–,> 100 µM (inactive)
CC1CC[C@@]2(OC1)OC1C[C@H]3[C@@H]4C/C(=N\N(C)C)[C@@]5(O)CC(O)CC[C@]5(C)[C@H]4CC[C@]3(C)C1[C@@H]2C (stereo partly drawn),–,48.9 µM (inactive),29.3 µM (inactive),29.7 µM (inactive),43.9 µM (inactive),41.6 µM (inactive),24.7 µM (inactive),58.7 µM (inactive),34.7 µM (inactive),43.9 µM (inactive),68.5 µM (inactive),29.8 µM (inactive),> 100 µM (inactive),–,33.7 µM (inactive),34.1 µM (inactive),74.6 µM (inactive),43.5 µM (inactive),21.2 µM (inactive),31.3 µM (inactive)
COC(=O)C1(SC)C2CCC3C2CCC31 (stereo not drawn),> 100 µM (inactive),–,–,> 100 µM (inactive),> 100 µM (inactive),> 100 µM (inactive),> 100 µM (inactive),> 100 µM (inactive),> 100 µM (inactive),> 100 µM (inactive),> 100 µM (inactive),> 100 µM (inactive),> 100 µM (inactive),> 100 µM (inactive),> 100 µM (inactive),> 100 µM (inactive),> 100 µM (inactive),> 100 µM (inactive),> 100 µM (inactive),> 100 µM (inactive)
CC(C)(C)OC(=O)Nc1cc(-c2ccccc2)co1,> 100 µM (inactive),> 100 µM (inactive),> 100 µM (inactive),–,> 100 µM (inactive),41.1 µM (inactive),83.9 µM (inactive),22.7 µM (inactive),> 100 µM (inactive),94.2 µM (inactive),> 100 µM (inactive),94 µM (inactive),> 100 µM (inactive),> 100 µM (inactive),50.1 µM (inactive),33.8 µM (inactive),> 100 µM (inactive),> 100 µM (inactive),> 100 µM (inactive),51.8 µM (inactive)
Cc1nn(C(=O)Cc2ccccc2)c2c1C(c1ccc(O)cc1)SC(=N)N2 (stereo not drawn),> 100 µM (inactive),> 100 µM (inactive),> 100 µM (inactive),> 100 µM (inactive),> 100 µM (inactive),> 100 µM (inactive),> 100 µM (inactive),> 100 µM (inactive),> 100 µM (inactive),–,> 100 µM (inactive),> 100 µM (inactive),> 100 µM (inactive),> 100 µM (inactive),> 100 µM (inactive),> 100 µM (inactive),–,–,> 100 µM (inactive),> 100 µM (inactive)
O=C1C=C(Nc2ccc(Br)cc2)c2ccccc2/C1=N/O,12.1 µM (inactive),9.1 µM (inactive),2.5 µM (inactive),10.2 µM (inactive),4.78 µM (inactive),11.6 µM (inactive),11.4 µM (inactive),5.6 µM (inactive),5.81 µM (inactive),7.35 µM (inactive),3.84 µM (inactive),1.83 µM (inactive),2 µM (inactive),6.52 µM (inactive),8.47 µM (inactive),11.7 µM (inactive),6.84 µM (inactive),5.18 µM (inactive),13.2 µM (inactive),23.6 µM (inactive)
CC(=O)C1=CN=C2C(=O)N(c3ccccc3)N(C)C12C (stereo not drawn),> 100 µM (inactive),49.9 µM (inactive),3.08 µM (inactive),> 100 µM (inactive),> 100 µM (inactive),> 100 µM (inactive),> 100 µM (inactive),–,> 100 µM (inactive),> 100 µM (inactive),16.9 µM (inactive),> 100 µM (inactive),–,> 100 µM (inactive),> 100 µM (inactive),> 100 µM (inactive),> 100 µM (inactive),> 100 µM (inactive),> 100 µM (inactive),> 100 µM (inactive)
Nc1nc(Cl)cc(OCC2(CO)CCCC2)n1,> 100 µM (inactive),> 100 µM (inactive),–,> 100 µM (inactive),–,> 100 µM (inactive),> 100 µM (inactive),> 100 µM (inactive),> 100 µM (inactive),> 100 µM (inactive),> 100 µM (inactive),> 100 µM (inactive),> 100 µM (inactive),–,> 100 µM (inactive),> 100 µM (inactive),> 100 µM (inactive),> 100 µM (inactive),> 100 µM (inactive),> 100 µM (inactive)
NC(Cc1ccc(S(=O)(=O)O)cc1)C(=O)NC(Cc1ccc(S(=O)(=O)O)cc1)C(=O)O (stereo not drawn),> 100 µM (inactive),> 100 µM (inactive),> 100 µM (inactive),> 100 µM (inactive),> 100 µM (inactive),> 100 µM (inactive),> 100 µM (inactive),> 100 µM (inactive),> 100 µM (inactive),> 100 µM (inactive),> 100 µM (inactive),> 100 µM (inactive),> 100 µM (inactive),> 100 µM (inactive),> 100 µM (inactive),> 100 µM (inactive),> 100 µM (inactive),> 100 µM (inactive),> 100 µM (inactive),> 100 µM (inactive)
COc1ccc(S(=O)(=O)O)cc1-n1nc(C(=O)Nc2ccccc2)n[n+]1-c1cc(S(=O)(=O)[O-])ccc1OC,–,> 100 µM (inactive),> 100 µM (inactive),> 100 µM (inactive),> 100 µM (inactive),> 100 µM (inactive),> 100 µM (inactive),> 100 µM (inactive),> 100 µM (inactive),> 100 µM (inactive),> 100 µM (inactive),> 100 µM (inactive),> 100 µM (inactive),> 100 µM (inactive),> 100 µM (inactive),> 100 µM (inactive),> 100 µM (inactive),> 100 µM (inactive),> 100 µM (inactive),> 100 µM (inactive)
